The values below are quoted from earlier work in patent US9918986B2, “Methods and compounds for preventing osteoarthritis” (UNIVERSITY COLLEGE CARDIFF CONSULTANTS LIMITED, priority 2013, dated 2018).

One series deals with Kainate receptor. The conditions noted are these: cited from earlier work.
The next series has as its system AMPA receptor. The note with it: cited from earlier work.
The subject of a further series is rodent arthritis. The note with it: oral administration, cited from earlier work.
Another series concerns human RA FLS. The note with it: cited from earlier work.
Another series addresses T1, IL-6 receptor (Homo sapiens, UniProt P08887).
T1 construct: host or cells: RA patients (endogenous receptor)
T1 sequence (P08887 20-468): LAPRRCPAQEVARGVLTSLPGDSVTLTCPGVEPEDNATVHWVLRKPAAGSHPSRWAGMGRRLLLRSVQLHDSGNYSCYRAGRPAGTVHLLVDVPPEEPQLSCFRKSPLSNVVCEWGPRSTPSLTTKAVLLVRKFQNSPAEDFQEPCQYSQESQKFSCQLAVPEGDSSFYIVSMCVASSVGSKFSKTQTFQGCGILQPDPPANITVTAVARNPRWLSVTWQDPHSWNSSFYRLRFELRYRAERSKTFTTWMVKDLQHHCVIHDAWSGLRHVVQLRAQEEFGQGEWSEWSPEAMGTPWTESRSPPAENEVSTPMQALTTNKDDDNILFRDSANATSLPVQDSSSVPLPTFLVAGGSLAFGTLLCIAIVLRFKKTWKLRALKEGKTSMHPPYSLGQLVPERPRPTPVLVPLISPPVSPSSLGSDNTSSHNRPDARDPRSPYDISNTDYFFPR
The conditions noted are these: RA patients; cited from earlier work.

For the compound `N#Cc1cc2c(cc1[N+](=O)[O-])=NC(=O)C(=O)N=2` [CNQX, 6-cyano-7-nitroquinoxaline-2,3-dione], the Kainate receptor antagonist entry in the series with Kainate receptor was “Yes”. The AMPA receptor antagonist entry with AMPA receptor is on record as “Yes”.
Regarding `NCCCNCCCCNCCCNC(=O)Cc1cccc2ccccc12` [1-NAS, 1-naphthyl acetyl sperm me], the Kainate receptor antagonist result in the series with Kainate receptor is “No”. In the series with AMPA receptor, the AMPA receptor antagonist result was “Yes”.
`O=C1N=c2cc([N+](=O)[O-])c([N+](=O)[O-])cc2=NC1=O` [DNQX, 6,7-dinitroquinoxaline-2,3-dione]: in the series on Kainate receptor, the Kainate receptor antagonist result is recorded as “Yes”. In addition, the AMPA receptor antagonist result in the series with AMPA receptor is on record as “Yes”.
As for `CC1=NN=C(c2ccc(N)cc2)c2cc3c(cc2C1)OCO3` [GYKI52466, 4-(8-Methyl-9H-1,3-dioxolo[4,5-h][2-,3]benzodiazepin-5-yl)-benzenamine], the Kainate receptor antagonist result with Kainate receptor is on record as “Yes”. In the series on AMPA receptor, the AMPA receptor antagonist result was “Yes”. For the same compound, in the series on rodent arthritis, the body weight loss entry was “attenuated”, the hyperalgesia result was “attenuated” and the “primary oedema on the right paw” value is “no effect”. Besides, in the series with rodent arthritis (second phase of chronic disease), the “secondary, generalized inflammation-induced swelling of the left paw” value is “no effect”.
`O=C1Nc2c(cc([N+](=O)[O-])c3c2CCCC3)C1=NO` [NS-102]: the Kainate receptor antagonist entry with Kainate receptor was “Yes”. Also, the AMPA receptor antagonist entry with AMPA receptor was “Weak”.
Turning to `C[C@]12N[C@H](Cc3ccccc31)c1ccccc12` [MK801], the proMMP-2 release result with human RA FLS (RA FLS) is listed as “significantly increased”.
Consider `COc1cc2c(cc1OC)C(c1ccc(N)cc1)=NNC(=O)C2` [CFM-2, 1-(4′-Aminophenyl)-3,5-dihydro-7,8-dimethoxy-4H-2,3-benzodiazepin-4-one], for which the Kainate receptor antagonist result in the series with Kainate receptor is listed as “No”. In addition, the AMPA receptor antagonist entry in the series on AMPA receptor is recorded as “Yes”. The “MMP-2 expression by FLS” value in the series on human RA FLS was “did not affect”.
With `Cc1cn(C[C@H](N)C(=O)O)c(=O)n(Cc2cc(-c3ccccc3)sc2C(=O)O)c1=O` [ACET], in the series with Kainate receptor, the Kainate receptor antagonist entry was “Yes”. Also, the AMPA receptor antagonist entry with AMPA receptor is “No”.
For the compound `O=C(O)c1cc(=O)c2ccccc2[nH]1` [Kynurenic acid], the Kainate receptor antagonist entry in the series on Kainate receptor is on record as “Yes”. The AMPA receptor antagonist result in the series on AMPA receptor is given as “Yes”.
In the case of `CCNC(=O)CC[C@H](N)C(=O)O` [L-Theanine, gamma-glutamylethylamide or 5-N-ethyl-glutamine], the Kainate receptor antagonist result with Kainate receptor is “Yes”. Also, in the series on AMPA receptor, the AMPA receptor antagonist entry is reported as “Yes”.
Consider `NC(CCCP(=O)(O)O)C(=O)O` [D-AP5], for which, in the series with human RA FLS, the “MMP-2 expression by FLS” value is on record as “did not affect”.
Regarding `O=C(O)[C@@H]1C[C@H]2C[C@@H](CCc3nn[nH]n3)CC[C@H]2CN1` [Tezampanel], in the series with Kainate receptor, the Kainate receptor antagonist entry is “Yes”. The AMPA receptor antagonist result in the series on AMPA receptor is “Yes”.
For “tocilizumab: anti-IL-6 receptor inhibitor”, the “synovitis and radiographic changes” value in the series with IL-6 receptor was “significantly improves”.
